Results from ChEMBL document CHEMBL2034913, “A variant peptide of buffalo colostrum β-lactoglobulin inhibits angiotensin I-converting enzyme activity” (Eur J Med Chem, 2012).
Peptide text beside a SMILES is read from it.

How the values were obtained:
[1] = biological target: T1, Angiotensin-converting enzyme (Rattus norvegicus) (UniProt P47820); assay: (§1) Inhibition of ACE from rat kidney using hippuryl-histidyl-leucine as substrate after 30 mins by UV/VIS spectrophotometry
T1 sequence (whole entry): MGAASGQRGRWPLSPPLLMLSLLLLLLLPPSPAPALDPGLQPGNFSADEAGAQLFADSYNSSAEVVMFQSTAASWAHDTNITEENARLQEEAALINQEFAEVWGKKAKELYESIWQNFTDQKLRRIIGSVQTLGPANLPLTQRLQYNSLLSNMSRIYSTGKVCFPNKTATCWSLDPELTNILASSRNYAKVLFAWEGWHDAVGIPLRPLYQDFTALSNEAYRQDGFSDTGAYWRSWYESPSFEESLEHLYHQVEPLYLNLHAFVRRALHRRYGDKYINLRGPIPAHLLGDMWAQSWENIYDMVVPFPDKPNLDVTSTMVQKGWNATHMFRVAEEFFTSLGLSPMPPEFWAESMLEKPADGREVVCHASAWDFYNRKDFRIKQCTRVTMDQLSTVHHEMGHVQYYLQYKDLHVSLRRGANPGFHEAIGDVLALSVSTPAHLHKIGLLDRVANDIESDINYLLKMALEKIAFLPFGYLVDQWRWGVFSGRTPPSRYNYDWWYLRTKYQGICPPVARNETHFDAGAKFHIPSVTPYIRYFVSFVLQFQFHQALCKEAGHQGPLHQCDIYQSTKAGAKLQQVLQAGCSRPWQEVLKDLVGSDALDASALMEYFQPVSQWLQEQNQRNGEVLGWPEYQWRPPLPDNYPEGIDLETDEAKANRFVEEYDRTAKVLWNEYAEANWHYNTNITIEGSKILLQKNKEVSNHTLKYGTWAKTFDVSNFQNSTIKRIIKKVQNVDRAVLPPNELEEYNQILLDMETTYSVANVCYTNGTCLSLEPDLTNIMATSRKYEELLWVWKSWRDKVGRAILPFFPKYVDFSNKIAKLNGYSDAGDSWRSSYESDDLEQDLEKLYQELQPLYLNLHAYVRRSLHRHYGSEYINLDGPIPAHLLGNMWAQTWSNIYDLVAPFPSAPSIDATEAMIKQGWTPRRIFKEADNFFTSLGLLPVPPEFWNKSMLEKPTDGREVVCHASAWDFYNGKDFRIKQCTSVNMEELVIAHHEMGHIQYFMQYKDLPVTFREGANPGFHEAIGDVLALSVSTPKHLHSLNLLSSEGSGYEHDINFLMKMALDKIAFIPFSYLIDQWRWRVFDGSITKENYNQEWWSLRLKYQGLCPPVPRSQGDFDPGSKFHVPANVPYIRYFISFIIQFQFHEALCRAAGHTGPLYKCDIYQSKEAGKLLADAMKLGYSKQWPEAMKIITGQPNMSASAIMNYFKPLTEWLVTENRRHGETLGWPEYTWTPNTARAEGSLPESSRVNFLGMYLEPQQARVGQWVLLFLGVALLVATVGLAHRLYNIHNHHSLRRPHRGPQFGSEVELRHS

[2] = biological target: T2, Angiotensin-converting enzyme (Rattus norvegicus, UniProt P47820); assay: as §1
T2 sequence (P47820 whole entry): T1 sequence (whole entry)

**Q.** What does the source list for `CC[C@H](C)[C@H](N)C(=O)N[C@H](C(=O)N[C@@H](C)C(=O)N[C@@H](CCSC)C(=O)N[C@@H](CCCCN)C(=O)O)[C@@H](C)CC` (H-IIAMK-OH)?
**A.** inhibition [1]: Dose-dependent effect; IC50 [2]: 498 µM
